Laboratory results reported in ChEMBL document CHEMBL1149262, “Monoamine transporter binding, locomotor activity, and drug discrimination properties of 3-(4-substituted-phenyl)tropane-2-carboxylic acid methyl ester isomers” (J Med Chem, 2004).
pIC50, pKi: −log10 of the molar value. The source made the active and inactive calls. No cut-off for these calls is given here.

Key:
Mus musculus [1] = assay: Locomotor activity in CD1 mouse assessed as stimulation at 0.3 mg/kg, ip after 1 hr relative to control; assay type: functional; settings: route intraperitoneal
Mus musculus [2] = assay: Locomotor activity in CD1 mouse assessed as stimulation at 0.3 mg/kg, ip after 2 hrs relative to control; assay type: functional; settings: route intraperitoneal
Mus musculus [3] = assay: Locomotor activity in CD1 mouse assessed as stimulation at 0.3 mg/kg, ip after 3 hrs relative to control; assay type: functional; settings: route intraperitoneal
Mus musculus [4] = assay: Locomotor activity in CD1 mouse assessed as stimulation at 0.3 mg/kg, ip after 4 hrs relative to control; assay type: functional; settings: route intraperitoneal
Mus musculus [5] = assay: Locomotor activity in CD1 mouse assessed as stimulation at 1 mg/kg, ip after 1 hr relative to control; assay type: functional; settings: route intraperitoneal
Mus musculus [6] = assay: Locomotor activity in CD1 mouse assessed as stimulation at 1 mg/kg, ip after 2 hrs relative to control; assay type: functional; settings: route intraperitoneal
Mus musculus [7] = assay: Locomotor activity in CD1 mouse assessed as stimulation at 1 mg/kg, ip after 3 hrs relative to control; assay type: functional; settings: route intraperitoneal
Mus musculus [8] = assay: Locomotor activity in CD1 mouse assessed as stimulation at 1 mg/kg, ip after 4 hrs relative to control; assay type: functional; settings: route intraperitoneal
Rattus norvegicus [9] = assay: Cocaine discrimination in ip dosed CD Albino rat; assay type: functional
Rattus norvegicus [10] = assay: Drug discrimination effect in CD Albino rat assessed as percent of rat choosing cocaine lever at 0.17 mg/kg, ip; assay type: functional; settings: route intraperitoneal
Rattus norvegicus [11] = assay: Drug discrimination effect in CD Albino rat assessed as percent of rat choosing cocaine lever at 0.3 mg/kg, ip; assay type: functional; settings: route intraperitoneal
Rattus norvegicus [12] = assay: Drug discrimination effect in CD Albino rat assessed as percent of rat choosing cocaine lever at 0.56 mg/kg, ip; assay type: functional; settings: route intraperitoneal
Rattus norvegicus [13] = assay: Drug discrimination effect in CD Albino rat assessed as percent of rat choosing cocaine lever at 1 mg/kg, ip; assay type: functional; settings: route intraperitoneal
Mus musculus [14] = assay: Activity in CD1 mouse assessed as stereotypy at 10 mg/kg, ip after 4 hrs; assay type: functional, organism-based; set-up: dose 10 mg/kg
Mus musculus [15] = assay: Activity in CD1 mouse assessed as stereotypy at 100 mg/kg, ip after 4 hrs; assay type: functional, organism-based; set-up: dose 100 mg/kg
[16] = molecular target: Sodium-dependent dopamine transporter (Homo sapiens, UniProt Q01959); assay: Displacement of [3H]WIN-35428 from DAT
[17] = molecular target: Sodium-dependent noradrenaline transporter (Homo sapiens, UniProt P23975); assay: Displacement of [3H]nisoxetine from NET
Mus musculus [18] = assay: Locomotor activity in ip dosed CD1 mouse in peak hour; assay type: functional
Mus musculus [19] = assay: Locomotor activity in CD1 mouse assessed as stimulation at 3 mg/kg, ip after 1 hr relative to control; assay type: functional; settings: route intraperitoneal
Mus musculus [20] = assay: Locomotor activity in CD1 mouse assessed as stimulation at 3 mg/kg, ip after 2 hrs relative to control; assay type: functional; settings: route intraperitoneal
Mus musculus [21] = assay: Locomotor activity in CD1 mouse assessed as stimulation at 3 mg/kg, ip after 3 hrs relative to control; assay type: functional; settings: route intraperitoneal
Mus musculus [22] = assay: Locomotor activity in CD1 mouse assessed as stimulation at 3 mg/kg, ip after 4 hrs relative to control; assay type: functional; settings: route intraperitoneal
Mus musculus [23] = assay: Locomotor activity in CD1 mouse assessed as stimulation at 10 mg/kg, ip after 1 hr relative to control; assay type: functional; settings: route intraperitoneal
Mus musculus [24] = assay: Locomotor activity in CD1 mouse assessed as stimulation at 10 mg/kg, ip after 2 hrs relative to control; assay type: functional; settings: route intraperitoneal
Mus musculus [25] = assay: Locomotor activity in CD1 mouse assessed as stimulation at 10 mg/kg, ip after 3 hrs relative to control; assay type: functional; settings: route intraperitoneal
Mus musculus [26] = assay: Locomotor activity in CD1 mouse assessed as stimulation at 10 mg/kg, ip after 4 hrs relative to control; assay type: functional; settings: route intraperitoneal
Rattus norvegicus [27] = assay: Drug discrimination effect in CD Albino rat assessed as percent of rat choosing cocaine lever at 0.1 mg/kg, ip; assay type: functional; settings: route intraperitoneal
Rattus norvegicus [28] = assay: Drug discrimination effect in CD Albino rat assessed as percent of rat choosing cocaine lever at 3 mg/kg, ip; assay type: functional; settings: route intraperitoneal
Rattus norvegicus [29] = assay: Drug discrimination effect in CD Albino rat assessed as percent of rat choosing cocaine lever at 5.6 mg/kg, ip; assay type: functional; settings: route intraperitoneal
Rattus norvegicus [30] = assay: Drug discrimination effect in CD Albino rat assessed as percent of rat choosing cocaine lever at 10 mg/kg, ip; assay type: functional; settings: route intraperitoneal
Mus musculus [31] = assay: Activity in CD1 mouse assessed as slight or intermittent hyperactivity at 10 mg/kg, ip after 4 hrs; assay type: functional, organism-based; set-up: dose 10 mg/kg
Mus musculus [32] = assay: Activity in CD1 mouse assessed as hyperactivity at 100 mg/kg, ip after 4 hrs; assay type: functional, organism-based; set-up: dose 100 mg/kg
Mus musculus [33] = assay: Activity in CD1 mouse assessed as circling at 100 mg/kg, ip after 4 hrs; assay type: functional, organism-based; set-up: dose 100 mg/kg
Mus musculus [34] = assay: Locomotor activity in CD1 mouse assessed as stimulation at 30 mg/kg, ip after 1 hr relative to control; assay type: functional; settings: route intraperitoneal
Mus musculus [35] = assay: Locomotor activity in CD1 mouse assessed as stimulation at 30 mg/kg, ip after 2 hrs relative to control; assay type: functional; settings: route intraperitoneal
Mus musculus [36] = assay: Locomotor activity in CD1 mouse assessed as stimulation at 30 mg/kg, ip after 3 hrs relative to control; assay type: functional; settings: route intraperitoneal
Mus musculus [37] = assay: Locomotor activity in CD1 mouse assessed as stimulation at 30 mg/kg, ip after 4 hrs relative to control; assay type: functional; settings: route intraperitoneal
Mus musculus [38] = assay: Locomotor activity in CD1 mouse assessed as stimulation at 100 mg/kg, ip after 1 hr relative to control; assay type: functional; settings: route intraperitoneal
Mus musculus [39] = assay: Locomotor activity in CD1 mouse assessed as stimulation at 100 mg/kg, ip after 2 hrs relative to control; assay type: functional; settings: route intraperitoneal
Mus musculus [40] = assay: Locomotor activity in CD1 mouse assessed as stimulation at 100 mg/kg, ip after 3 hrs relative to control; assay type: functional; settings: route intraperitoneal
Mus musculus [41] = assay: Locomotor activity in CD1 mouse assessed as stimulation at 100 mg/kg, ip after 4 hrs relative to control; assay type: functional; settings: route intraperitoneal
Mus musculus [42] = assay: Activity in CD1 mouse assessed as hyperactivity at 1 mg/kg, ip after 4 hrs; assay type: functional, organism-based; set-up: dose 1 mg/kg
Mus musculus [43] = assay: Activity in CD1 mouse assessed as stereotypy at 1 mg/kg, ip after 4 hrs; assay type: functional, organism-based; set-up: dose 1 mg/kg
Mus musculus [44] = assay: Activity in CD1 mouse assessed as hyperactivity at 10 mg/kg, ip after 4 hrs; assay type: functional, organism-based; set-up: dose 10 mg/kg
Mus musculus [45] = assay: Activity in CD1 mouse assessed as circling at 10 mg/kg, ip after 4 hrs; assay type: functional, organism-based; set-up: dose 10 mg/kg
Mus musculus [46] = assay: Activity in CD1 mouse assessed as straub tail at 100 mg/kg, ip after 4 hrs; assay type: functional, organism-based; set-up: dose 100 mg/kg
Mus musculus [47] = assay: Activity in CD1 mouse assessed as convulsions at 100 mg/kg, ip after 4 hrs; assay type: functional, organism-based; set-up: dose 100 mg/kg

Sequence of Sodium-dependent noradrenaline transporter (P23975 whole entry): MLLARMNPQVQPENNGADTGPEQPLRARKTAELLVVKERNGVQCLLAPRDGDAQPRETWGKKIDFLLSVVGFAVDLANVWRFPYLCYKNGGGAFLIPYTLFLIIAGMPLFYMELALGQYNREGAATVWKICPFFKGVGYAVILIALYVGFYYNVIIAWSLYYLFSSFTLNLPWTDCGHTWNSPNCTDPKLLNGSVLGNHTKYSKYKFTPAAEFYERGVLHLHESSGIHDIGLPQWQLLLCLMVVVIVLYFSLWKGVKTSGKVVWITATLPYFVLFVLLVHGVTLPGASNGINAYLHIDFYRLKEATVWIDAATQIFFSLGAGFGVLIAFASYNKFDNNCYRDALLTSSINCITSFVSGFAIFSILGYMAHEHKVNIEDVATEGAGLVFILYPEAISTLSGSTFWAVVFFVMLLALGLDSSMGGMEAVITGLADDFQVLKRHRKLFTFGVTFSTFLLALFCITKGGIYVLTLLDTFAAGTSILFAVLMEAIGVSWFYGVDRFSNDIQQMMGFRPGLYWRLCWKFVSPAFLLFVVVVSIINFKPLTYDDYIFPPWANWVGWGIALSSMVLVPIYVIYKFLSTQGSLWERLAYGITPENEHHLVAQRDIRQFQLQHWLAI
Sequence of Sodium-dependent dopamine transporter (Q01959 whole entry): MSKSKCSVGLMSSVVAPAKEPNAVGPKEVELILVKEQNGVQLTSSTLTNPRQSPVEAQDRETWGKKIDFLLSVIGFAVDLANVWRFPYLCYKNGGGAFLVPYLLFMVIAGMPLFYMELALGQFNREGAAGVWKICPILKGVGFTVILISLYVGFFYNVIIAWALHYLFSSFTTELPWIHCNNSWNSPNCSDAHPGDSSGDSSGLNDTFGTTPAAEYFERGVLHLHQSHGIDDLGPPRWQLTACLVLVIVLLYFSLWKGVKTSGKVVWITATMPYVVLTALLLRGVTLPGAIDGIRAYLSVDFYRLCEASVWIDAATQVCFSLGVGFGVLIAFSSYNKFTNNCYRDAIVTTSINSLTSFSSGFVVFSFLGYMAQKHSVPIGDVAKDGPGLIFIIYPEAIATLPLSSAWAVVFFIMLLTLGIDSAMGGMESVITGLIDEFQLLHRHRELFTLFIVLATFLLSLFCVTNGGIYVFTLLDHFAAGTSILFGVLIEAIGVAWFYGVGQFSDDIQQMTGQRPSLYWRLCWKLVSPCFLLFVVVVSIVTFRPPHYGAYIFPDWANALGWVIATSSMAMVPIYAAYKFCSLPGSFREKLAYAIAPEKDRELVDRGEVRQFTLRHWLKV

| SMILES | Activity (Mus musculus [1]) [%] | Activity (Mus musculus [2]) [%] | Activity (Mus musculus [3]) [%] | Activity (Mus musculus [4]) [%] | Activity (Mus musculus [5]) [%] | Activity (Mus musculus [6]) [%] | ED50 (Rattus norvegicus [9]) [mg/kg] | Activity (Mus musculus [14]) | Activity (Mus musculus [15]) | pIC50 [17] | pKi [17] | ED50 (Mus musculus [18]) [mg/kg] | Activity (Mus musculus [19]) [%] | Activity (Mus musculus [20]) [%] | Activity (Mus musculus [21]) [%] | Activity (Mus musculus [22]) [%] | Activity (Mus musculus [23]) [%] | Activity (Mus musculus [24]) [%] | Activity (Mus musculus [25]) [%] | Activity (Mus musculus [26]) [%] | also measured |
| --- | --- | --- | --- | --- | --- | --- | --- | --- | --- | --- | --- | --- | --- | --- | --- | --- | --- | --- | --- | --- | --- |
| COC(=O)[C@@H]1C2CC[C@H](C[C@@H]1c1ccc(C)cc1)N2C | 19 | -3 | -61 | -28 | 305 | 298 | 0.31 | Active | Active | 7.22 | 7.44 | 0.6 | 533 | 460 | 157 | 30 | 283 | 476 | 343 | 273 | Activity (Mus musculus [7]): 41%; Activity (Mus musculus [8]): -4%; Activity (Rattus norvegicus [10]): 25%; Activity (Rattus norvegicus [11]): 57%; Activity (Rattus norvegicus [12]): 71%; Activity (Rattus norvegicus [13]): 86%; pIC50 [16]: 8.77; Activity (Rattus norvegicus [27]): 0% |
| COC(=O)[C@@H]1C2CCC(C[C@H]1c1ccccc1)N2C (some centres undefined) |  |  |  |  |  |  | 3.19 | Active | Active | 6.27 | 6.57 | 21.8 | -30 | -39 | -35 | 12 | 43 | 6 | -13 | 6 | Activity (Rattus norvegicus [28]): 13%; Activity (Rattus norvegicus [29]): 100%; Activity (Rattus norvegicus [30]): 100%; Activity (Mus musculus [31]): Active; Activity (Mus musculus [32]): Active; Activity (Mus musculus [33]): Active; pIC50 [16]: 7.00; Activity (Mus musculus [34]): 161%; Activity (Mus musculus [35]): 17%; Activity (Mus musculus [36]): 47%; Activity (Mus musculus [37]): 97%; Activity (Mus musculus [38]): 338%; Activity (Mus musculus [39]): 191%; Activity (Mus musculus [40]): 234%; Activity (Mus musculus [41]): 390% |
| COC(=O)[C@@H]1C2CC[C@H](C[C@@H]1c1ccccc1)N2C | 44 | 56 | 24 | 62 | 253 | 192 | 0.34 | Active | Active | 6.04 | 6.26 | 1.2 | 660 | 506 | 276 | 199 | 904 | 1080 | 964 | 190 | Activity (Mus musculus [7]): 102%; Activity (Mus musculus [8]): 151%; Activity (Rattus norvegicus [10]): 14%; Activity (Rattus norvegicus [11]): 36%; Activity (Rattus norvegicus [12]): 88%; Activity (Rattus norvegicus [13]): 100%; Activity (Mus musculus [42]): Active; Activity (Mus musculus [43]): Active; Activity (Mus musculus [44]): Active; Activity (Mus musculus [45]): Active; Activity (Mus musculus [46]): Active; Activity (Mus musculus [47]): Active |
